The values that follow come from patent US11219608B2, “Triple combination formulation for treatment of chronic pain” (Northwestern University, priority 2017, dated 2022).

“Also recorded” adds a separate entry of the source.

The test system of one series is SNI. The note with it: intrathecal injection; cited from earlier work.
Series [1] concerns Npc1nmf164 mice. Kind of series: Foamy macrophages in lungs of Npc1nmf164 mice (H&E). The class given is in vivo, mouse. The note with it: Npc1nmf164 mice at 100 days of age, weekly i.p. Here is the method: H&E stained micrographs showing foamy macrophages (indicated by black arrows) at 100 days of age in the lung of Npc1^+/nmf164 (healthy control) and Npc1^nmf164 (^Npc) mutant mice treated as indicated. Foamy macrophages were abundant in untreated Npc mice. […] Images were taken with 40× objective lens and are representative of 4 mice in each group. Number of mice in each group=4. For quantitation, 10-15 random fields were analyzed per lung section. Untr, Untreated.*p=0.02, TCF vs HPBCD, two-tailed Mann-Whitney test.
Drug injection and organ harvest—The Triple combination formulation (TCF) is a mixture of vorinostat (50 mg/kg), HPBCD (2000 mg/Kg)), PEG 400 (45%) and DMSO (5%). Vorinostat (50 mg/Kg) was made in 5% DMSO and 45% PEG. HPBCD was a 20% (w/v) solution and given dose of 2000 mg/Kg. Detailed methodology on preparing drug solutions have been descried earlier^10. To enable comparative studies with prior regiments, all mice were given two doses of HPBCD at P7 and P15. From P21 onwards, mice received either HPBCD alone or TCF, as indicated. Vo was also initiated at P21. […] For lung histopathology, Npc1^nmf164 mice were analyzed at 100-109 days of age. Long-term safety was assessed for 8-10 months either in Npc^1+/nmf164 or commercially purchased wild type Balb/c mice. […]

Another series relates to inflammatory pain model. The settings on record: intrathecal; cited from earlier work.
For series [2], the system named is Npc1nmf164 mice. The experiment in a line: Efficacy in Npc1nmf164 mouse model of Niemann-Pick type C disease. Format: in vivo.
Description: Animals—Npc1^nmf164 is a BALB/c strain carry a D1005G (A to G at cDNA bp 3163) mutation in the Npc1 gene 32. […] Homozygous mutants (Npc1^nmf164) along with wild-type littermates (Npc1^+/+), were generated in house by crossing heterozygous mutant (Npc1^+/nmf164) males and females and genotyped as previously described^10. Wild type Balb/c mice were procured from Envigo (Indianapolis, Ind., USA).
Drug injection and organ harvest—The Triple combination formulation (TCF) is a mixture of vorinostat (50 mg/kg), HPBCD (2000 mg/Kg)), PEG 400 (45%) and DMSO (5%). Vorinostat (50 mg/Kg) was made in 5% DMSO and 45% PEG. HPBCD was a 20% (w/v) solution and given dose of 2000 mg/Kg. […] To enable comparative studies with prior regiments, all mice were given two doses of HPBCD at P7 and P15. From P21 onwards, mice received either HPBCD alone or TCF, as indicated. Vo was also initiated at P21. Injections were administered weekly through the intraperitoneal (i.p) route (and the injection volume used was 10 ml/Kg body weight across all treatment groups). For lung histopathology, Npc1^nmf164 mice were analyzed at 100-109 days of age. Long-term safety was assessed for 8-10 months either in Npc^1+/nmf164 or commercially purchased wild type Balb/c mice.
The nature of series [3]: Quantification of Vo in lungs by mass spectrometry. The class given is in vivo, mouse. The note with it: Npc1+/nmf164 mice. Here is the method:
Npc1^+/nmf164 injected i.p. with Vo or TCF. At indicated times, animals sacrificed, perfused with PBS and Vo concentration in lungs were determined by mass spectrometry. n=5. h, hour. *p=0.02, TCF vs Vo 0.5 h, and **p=0.014 TCF vs Vo, 1 h, two tailed Student's t test.
Quantification of Vo in lungs—Npc1^+/nmf164 mice (age 6-7 weeks) were given intraperitoneal injections of either Vo (50 mg/Kg in 45% PEG and 5% DMSO) or TCF (Vo 50 mg/Kg+HPBCD, 2000 mg/Kg+PEG, 45%+DMSO, 5%). At 30 min and 1 h post injection, mice were asphyxiated with CO2, blood was drawn by cardiac puncture and organs were perfused with 20 ml ice-cold PBS through the ventricle. Harvested lungs were cut into small pieces (4-6 mm2) and flash frozen in liquid nitrogen. The quantification of vorinostat was done by Metabolite Profiling Facility, Bindley Bioscience Center, Purdue University, Ind., USA. The detailed methods are as described earlier^10. Briefly, the tissue was homogenized using a Precelly bead homogenizer system utilizing ceramic CK 14 beads. 2 ng of deuterated internal standard (d5-Vorinostat, Toronto Research Chemicals, Ontario, Canada) was added to lung homogenate prior to liquid extraction with acetonitrile. Prior to analysis, samples were reconstituted in 100 μL of 50% water/50% acetonitrile. An Agilent 1200 Rapid Resolution liquid chromatography (HPLC) system coupled to an Agilent 6460 series triple quadrupole mass spectrometer (MS/MS) was used to analyze vorinostat. The data were obtained in positive electrospray ionization (ESI) mode and quantitated by monitoring the following transitions: for Vorinostat, 265→232 with a collision energy of 5 V and for d5-Vorinostat, 270→237 with collision energy of 5 V.

Another series relates to animal pain models. The note with it: systemically applied; cited from earlier work.
For series [4] the following is noted: literature, cited from earlier work.

`O=C(O)[C@H]1O[C@@H](Oc2cc3oc(-c4ccccc4)cc(=O)c3c(O)c2O)[C@H](O)[C@@H](O)[C@@H]1O` [baicalin]: in the series with SNI, the histone acetylation entry is reported as “reduces histone acetylation” and the pain behavior result is recorded as “reverses pain behavior”.
As to `O=C(CCCCCCC(=O)Nc1ccccc1)NO` [Vo, vorinostat], the “accumulation of foamy macrophages in the lungs” value with Npc1nmf164 mice [1] is recorded as “abundant macrophage accumulation; also recorded: no effect”. In addition, in the series with inflammatory pain model, the “histone acetylation in the spinal cord dorsal horn” value is “enhanced histone acetylation” and the hyperalgesia result was “reduced hyperalgesia”. Moreover, in the series on Npc1nmf164 mice [2] (Vo in PEG), the “benefit on Npc1nmf164 mouse survival” value was “no benefit”. Moreover, in series [3] (i.p.), the “reduction of Vo lung concentration from 30 min to 60 min” value was 65-70%. The compound also had a concentration at 30 min in series [3] (mouse, lung, ip, 50 mg/Kg, 30 min post i.p. injection) of 3200 ng/g. For the same compound, in series [3] (mouse, lung, ip, 50 mg/Kg, 60 min post i.p. injection), the concentration at 60 min turned out to be 1000 ng/g.
With `COc1cc(/C=C/C(=O)CC(=O)/C=C/c2ccc(O)c(OC)c2)ccc1O` [curcumin], the analgesia entry in the series with animal pain models is “modest analgesia”.
In the case of `CC(/C=C/C(=O)NO)=C\[C@@H](C)C(=O)c1ccc(N(C)C)cc1` [trichostatin A], in the series with inflammatory pain model, the “histone acetylation in the spinal cord dorsal horn” value is given as “enhanced histone acetylation” and the hyperalgesia entry is given as “reduced hyperalgesia”.
`CC(O)COC[C@H]1O[C@@H]2O[C@H]3[C@H](O)[C@@H](O)[C@@H](O[C@H]4[C@H](O)[C@@H](O)[C@@H](O[C@H]5[C@H](O)[C@@H](O)[C@@H](O[C@H]6[C@H](O)[C@@H](O)[C@@H](O[C@H]7[C@H](O)[C@@H](O)[C@@H](O[C@H]8[C@H](O)[C@@H](O)[C@@H](O[C@H]1[C@H](O)[C@H]2O)O[C@@H]8COCC(C)O)O[C@@H]7COCC(C)O)O[C@@H]6COCC(C)O)O[C@@H]5COCC(C)O)O[C@@H]4COCC(C)O)O[C@@H]3COCC(C)O` (stereo partly drawn) [HPBCD, 2-hydroxypropyl-β-cyclodextrin]: the “accumulation of foamy macrophages in the lungs” value with Npc1nmf164 mice [1] is “abundant macrophage accumulation; also recorded: no effect”. Also, the “benefit on Npc1nmf164 mouse survival” value with Npc1nmf164 mice [2] (2×HPBCD compared to 1×HPBCD alone) is “no additional benefit”. Also, the “blood brain barrier crossing” value in series [4] is “does not cross the blood brain barrier”. For the same compound, the distribution to lung entry in series [4] (systemic delivery) is “excluded from lung”.
For `O=C(/C=C/c1ccc(CN(CCO)CCc2c[nH]c3ccccc23)cc1)NO` [dacinostat], in the series with inflammatory pain model, the “histone acetylation in the spinal cord dorsal horn” value is reported as “enhanced histone acetylation” and the hyperalgesia entry was “reduced hyperalgesia”.
Regarding `CCCC(CCC)C(=O)O` [valproic acid], in the series on animal pain models, the analgesia entry is listed as “modest analgesia”.
